The source of these data is patent US20190240225A1, “COMBINATION OF A BCL-2 INHIBITOR AND A MCL-1 INHIBITOR, USES AND PHARMACEUTICAL COMPOSITIONS THEREOF” (LES LABORATOIRES SERVIER, priority 2016, published 2019).

One data set has as its system NALM-6. Put plainly: CellTiterGlo viability, B-ALL cell line. In kind it is cell-based. The note with it: for IC50: NALM-6, B-ALL, single agent, 72 h; for growth inhibition: NALM-6 cells, fourth lowest concentration tested (FIG. 11, top left panel). As for the experimental part:
In addition, all media contained penicillin (100 IU/ml), streptomycin (100 μg/ml) and L-glutamine (2 mM). […] All cell lines were determined to be free of mycoplasma contamination in-house. Stock solutions of compounds were prepared at a concentration of 5 mM in DMSO and stored at −20° C. In order to analyse the activity of the compounds as single agents, cells were seeded and treated with nine 2-fold serial dilutions of each compound dispensed individually directly into the cell assay plates. […] All the conditions were tested in triplicates. Luminescence was quantified on a multipurpose plate reader. Single agent IC50s were calculated using standard four-parametric curve fitting. […] In order to analyse the activity of the compounds in combination, cells were seeded and treated with seven or eight 3.16-fold serial dilutions of each compound dispensed, either individually or in all possible permutations in a checkerboard fashion, directly into the cell assay plates as indicated in FIG. 1. […] For B-ALL cell lines, two independent experiments, each one performed in duplicates, were performed. For T-ALL cell lines, one experiment performed in triplicate was performed. Luminescence was quantified on a multipurpose plate reader. […] All calculations were performed using Chalice TM Bioinformatics Software available in Horizon website.
On the technique in general: In ATP-based viability assays light output follows the ATP content of the culture.

Data set [1] can be described thus: Stability of dosing formulations. In kind it is physicochemical. The following applies: 4° C; Compound 1, HCl in 5% Ethanol, 20% Dexolve-7 (iv) or PEG300/EtOH/water (40/10/50) (po); ABT-199 in PEG300/EtOH/water (40/10/50); Compound 3 in Liposomal formulation. As for the experimental part: Compound 1, HCl was formulated in 5% Ethanol, 20% Dexolve-7 as a solution for intravenous administration or formulated in PEG300/EtOH/water (40/10/50) for oral administration. ABT-199 was formulated in PEG300/EtOH/water (40/10/50) for oral administration. […] Vehicle and compound dosing solutions were prepared as needed. All animals were dosed at 10 mL/kg with Compound 1 (expressed as the free base) or ABT-199, or 5 mL/kg with Compound 3.

Data set [2] deals with Acute Myeloid Leukemia (AML) cell lines. Put plainly: CellTiterGlo viability, panel of AML cell lines. The note with it: all 5 AML cell lines of combination (c); single agent; read-out: IC50s. In kind it is cell-based. How it is done: In addition, all media contained penicillin (100 IU/ml), streptomycin (100 μg/ml) and L-glutamine (2 mM).
Cell lines were cultured at 37° C. in a humidified atmosphere containing 5% CO2 and expanded in T-150 flasks. In all cases cells were thawed from frozen stocks, expanded through ≥1 passage using appropriate dilutions, counted and assessed for viability using a CASY cell counter prior to plating 150 ul/well at the densities indicated in Table 1 into 96-well plates. All cell lines were determined to be free of mycoplasma contamination in-house.
Stock solutions of compounds were prepared at a concentration of 5 mM in DMSO and stored at −20° C.
In order to analyse the activity of the compounds as single agents, cells were seeded and treated with nine 2-fold serial dilutions of each compound dispensed individually directly into the cell assay plates. Effects of the compounds on cell viability were assessed after 3 days of incubation at 37° C./5% CO2 by quantification of cellular ATP levels using CellTiterGlo at 75 μL reagent/well. All the experiments were performed in triplicates. Luminescence was quantified on a multipurpose plate reader. Single agent IC50s were calculated using standard four-parametric curve fitting. […]
In order to analyse the activity of the compounds in combination, cells were seeded and treated with seven or eight 3.16-fold serial dilutions of each compound dispensed, either individually or in all possible permutations in a checkerboard fashion, directly into the cell assay plates as indicated in FIG. 9. Effects of the single agents as well as their checkerboard combinations on cell viability were assessed after 3 days of incubation at 37° C./5% CO2 by quantification of cellular ATP levels using CellTiterGlo at 75 μL reagent/well. […] Luminescence was quantified on a multipurpose plate reader.
Potential synergistic interactions between compound combinations were assessed using the Excess Inhibition 2D matrix according to the Loewe additivity model and are reported as Synergy Score (Lehar et al, Nat Biotechnol. 2009 July; 27(7): 659-666). […]

On to `Cl.O=C(c1cc(-c2cc3c(cc2C(=O)N2Cc4ccccc4C[C@H]2CN2CCOCC2)OCO3)n2c1CCCC2)N(c1ccccc1)c1ccc(O)cc1` [Compound 1, HCl, N-(4-hydroxyphenyl)-3-{6-[((3S)-3-(4-morpholinylmethyl)-3,4-dihydro-2(1H)-isoquinolinyl)carbonyl]-1,3-benzodioxol-5-yl}-N-phenyl-5,6,7,8-tetrahydro-1-indolizine carboxamide hydrochloride], for which, in the data set with NALM-6 (Homo sapiens), the IC50 was determined as 3630 nM. Moreover, the growth inhibition with NALM-6 turned out to be 8%. Moreover, the “stability of dosing formulation” value in data set [1] is “stable for at least one week at 4 °C”.

For `COc1ccccc1-c1nccc(COc2ccccc2C[C@@H](Oc2ncnc3sc(-c4ccc(F)cc4)c(-c4ccc(OCCN5CCN(C)CC5)c(Cl)c4C)c23)C(=O)O)n1` [Compound 3, (2R)-2-{[(5Sa)-5-{3-chloro-2-methyl-4-[2-(4-methylpiperazin-1-yl)ethoxy]phenyl}-6-(4-fluorophenyl)thieno[2,3-d]pyrimidin-4-yl]oxy}-3-(2-{[2-(2-methoxyphenyl)pyrimidin-4-yl]methoxy}phenyl)propanoic acid], in data set [2], the IC50 was less than 200 nM. In the data set on NALM-6, the IC50 turned out to be 120 nM and the growth inhibition worked out at 6%. Besides, the “stability of dosing formulation” value in data set [1] is “stable for three weeks at 4 °C”.
